GI50 and TGI data for five compounds are collected here from PubChem BioAssay (NCI).

Some test systems named below: UO-31 renal; SR leukemia; DU-145 prostate; SF-268 CNS; COLO 205 colon; OVCAR-5 ovarian; T-47D breast; LOX IMVI melanoma; NCI-H23 lung; HL-60(TB) leukemia.
Holding throughout (assay): growth of human tumour cells (NCI), 48 h

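Following 48 hours of exposure in 96-well plates, responses at five concentrations were used to interpolate endpoints linearly. Here, GI50 denotes the concentration required for 50% inhibition of growth. TGI: concentration producing complete growth inhibition.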

`COC(=O)c1ccc2c(c1)nc(-c1ccc(Cl)cc1)n2-c1cc(C(C)(C)C)[nH]n1`: the GI50 in the test on UO-31 renal was 3.35 µM; in the test with SR leukemia, 3230 nM; with DU-145 prostate it was 3.69 µM; in the test with SF-268 CNS it was 3.29 µM; in the test on COLO 205 colon, 2290 nM; in the test with OVCAR-5 ovarian, 12.9 µM. Besides, the GI50 in the test with T-47D breast was 3.64 µM; in the test with LOX IMVI melanoma, 3.7 µM; in the test with NCI-H23 lung it was 3.42 µM; in the test with HL-60(TB) leukemia, 4030 nM. Further, the TGI with UO-31 renal was 44.1 µM; in the test with SR leukemia, more than 100 µM; in the test on DU-145 prostate, 25.1 µM; with SF-268 CNS, 17.8 µM; in the test with COLO 205 colon it was 6.04 µM; with OVCAR-5 ovarian, 60.1 µM. In addition, the TGI with T-47D breast is more than 100 µM; with LOX IMVI melanoma, 14.5 µM; in the test with NCI-H23 lung, 36 µM; in the test with HL-60(TB) leukemia, 19 µM.
`COC(=O)c1oc2c(C(=O)/C=C/c3ccc(OC)cc3)c(OCCCN3CCCCC3)ccc2c1C`: the GI50 with UO-31 renal is 1.6 µM; in the test on SR leukemia, 1450 nM; with DU-145 prostate, 1.18 µM; in the test on SF-268 CNS, 2.24 µM; in the test with COLO 205 colon, 1510 nM; in the test on OVCAR-5 ovarian it was 2.31 µM. In addition, the GI50 is 1.42 µM in the test on T-47D breast, 1.45 µM with LOX IMVI melanoma, 1.3 µM in the test with NCI-H23 lung and 872 nM with HL-60(TB) leukemia. For the same compound, the TGI worked out at 4.55 µM in the test on UO-31 renal; 3.78 µM in the test with SR leukemia; 2.57 µM with DU-145 prostate; 4.69 µM in the test on SF-268 CNS; 3.13 µM in the test on COLO 205 colon; 6.17 µM in the test on OVCAR-5 ovarian. In addition, the TGI worked out at 4.89 µM in the test with T-47D breast, 2.82 µM with LOX IMVI melanoma, 3.47 µM in the test with NCI-H23 lung and 2.7 µM in the test with HL-60(TB) leukemia.
As for `COc1ccc(Cc2ccccc2C(=O)O)c2ccccc12`, the TGI is more than 100 µM in the test on UO-31 renal; more than 100 µM with SR leukemia; more than 100 µM with DU-145 prostate; 87.5 µM in the test with SF-268 CNS; 34.5 µM in the test with COLO 205 colon; 59.6 µM in the test with OVCAR-5 ovarian. Also, the TGI in the test with T-47D breast is more than 100 µM; with LOX IMVI melanoma, 54.4 µM; with NCI-H23 lung, 67.3 µM; in the test on HL-60(TB) leukemia it was 46 µM.
In the case of `O=Nc1c(-c2cccc([N+](=O)[O-])c2)nc2ncccn12`, the GI50 with UO-31 renal is 5.66 µM; with SR leukemia, 218 nM; in the test on DU-145 prostate, 4.24 µM; in the test with SF-268 CNS, 18.3 µM; in the test with COLO 205 colon, 6250 nM; in the test with OVCAR-5 ovarian, 18.5 µM. In addition, the GI50 with T-47D breast was 6.29 µM; with LOX IMVI melanoma, 11.6 µM; with NCI-H23 lung, 15.1 µM; in the test on HL-60(TB) leukemia it was 2320 nM. Further, the TGI in the test with UO-31 renal is 30.3 µM; with SR leukemia, 2.22 µM; in the test with DU-145 prostate, 16.8 µM; with SF-268 CNS, 66.8 µM; with COLO 205 colon, 19.9 µM; in the test on OVCAR-5 ovarian, 39.1 µM. Besides, the TGI with T-47D breast came to 39.1 µM; in the test on LOX IMVI melanoma, 27 µM; in the test with NCI-H23 lung, 34.9 µM; in the test with HL-60(TB) leukemia, 6.15 µM.
On to `NCCOc1ccccn1`, for which the TGI with UO-31 renal, with SR leukemia, in the test with DU-145 prostate, in the test with SF-268 CNS, in the test with COLO 205 colon and in the test on OVCAR-5 ovarian was more than 100 µM throughout. Also, the TGI in the test with T-47D breast, with LOX IMVI melanoma, in the test on NCI-H23 lung and in the test with HL-60(TB) leukemia was more than 100 µM throughout.
